# Test results published in patent US20010008891A1, “PHARMACEUTICAL COMPOSITIONS COMPRISING A XANTHINE AND A CATECHIN” (priority 1998, published 2001).
# Test system: human platelet rich plasma
# Assay: ADP induced platelet aggregation test in human platelet rich plasma
# Format: cell-based
# Experimental: The antiplatelet aggregatory activity was measured using human platelet rich plasma as described below, and in Subbiah et al. Brazilian Journal of Medical and Biological Research 1988; 21: 535-538.
# Platelet-rich plasma (PRP) was obtained by centrifuging blood collected in 3.8% trisodium citrate (9:1, v/v) from human volunteers or from the blood bank for 15 minutes at 700 rpm. Remaining blood was centrifuged at 2500 rpm for 25 minutes to obtain platelet-poor plasma (PPP). The platelets were quantified with an electronic counter (Coulter Electronics, Inc., Hialeah, Fla.). The platelet count was adjusted to 300,000-350,000/mm^3 with PPP, and 0.45 ml used in each test of aggregation.
# ADP (Sigma Chemical Co. St. Louis, Mo.) (0.1 mg/ml), and arachidonic acid (NuCheck Pre, Elysian, Minn.) (1.0 mg/ml in 20 mM Na2CO3) were used as aggregatory agents. Samples were warmed to 37° C. with stirring for approximately two minutes prior to the addition of 50 μl of aggregating agents. Guarana (or its fractions) or caffeine (alone or in combination with catechins) were added before the addition of ADP or arachidonic acid. The change in percentage light transmission was recorded with a dual aggregometer (Chrono-Log Co, Havertown, Pa.) after addition of aggregation agents.
smiles,measurement,value
Cn1c(=O)c2c(ncn2C)n(C)c1=O [caffeine],platelet aggregation inhibitory activity (in words),only weakly active
